Reference: patent US20250134863A1, “MEDICAL AGENT FOR TREATING OR SUPPRESSING PROGRESSION OF AMYOTROPHIC LATERAL SCLEROSIS” (MITSUBISHI TANABE PHARMA CORPORATION, priority 2022, published 2025)
Values joined by “and” are separate entries in the source; they are usually repeats but may differ in a detail not shown here. Identical values can stand only once.

Experiments:
Assay type in all cases: in vivo, human
[1] = test system: ALS patients; test: Propensity score matching cohort evaluation, EE group vs PRO-ACT placebo, ALSFRS-R total score
Experimental: In a sensitivity analysis, propensity score matching cohort evaluation was conducted to compare the baseline changes in ALSFRS-R total score at 48 weeks between the EE group from the 16 trial, the 17 trial, and the 19 trial, and a matching cohort from the Pooled Resource Open-Access ALS Clinical Trials Database (hereinafter PRO-ACT) database. The EE group and PRO-ACT placebo group were matched 1:1 using a caliper width of 0.2 of the log it of the propensity score. The propensity score was developed using baseline confounding factors and ALS progression variables (gender, body weight, age, duration of ALS disease, ALSFRS-R total score baseline, uric acid baseline) of the EE group. A balance after the matching was evaluated using a standardized mean difference of less than 0.1 (Reference 6: J Clin Epidemiol 2001; 54 (4): 387-398). The propensity score was added as an explanatory variable for the MMRM analysis. Further, a subgroup analysis of uric acid levels was performed using MMRM analysis within the matching cohort, and the change from baseline in the ALSFRS-R total score at 48 weeks was compared between the EE group and the PRO-ACT placebo group.

[2] = test system: ALS patients; test: Post-hoc statistical analysis 1: blood uric acid levels in 25% improvement and non-25% improvement groups
Experimental: The blood uric acid levels in the 16 trial, 17 trial, and 19 trial were measured values obtained using the uricase-peroxidase method.
(§1) In the present analysis, efficacy was analyzed for placebo patients who had completed the 24-week double-blind period (cycles 1 to 6) and had at least one data point in cycle 7. To estimate the percent change in ALSFRS-R slope for transition from placebo administration (baseline to 24 weeks) to edaravone administration (24 weeks 24 to 48 weeks), a random coefficient model was applied to all available ALSFRS-R score data during this period.
(§2) A 25% improvement group meets both of the following criteria:
(§3) (1) ALSFRS-R slope % change ≥+25% (this change is defined as a clinically significant improvement (Reference 5: Amyotroph Lateral Scler 2010; 11 (1-2): 178-180)) and (2) ALSFRS-R total score at the start of cycle 7 (24 weeks)>24 points (half of the 48-point ALSFRS-R total score) (this helps avoid floor effects related to the ALSFRS-R total score that could lead to false positives in the analysis).
(§4) These criteria were used to define a 25% improvement group and a non-25% improvement group. Using a mixed model for repeated measures, the changes in uric acid levels from the start of cycle 7 (24 weeks) to cycle 12 (48 weeks) were summarized for the 25% improvement group and the non-25% improvement group. The correlation between the change in uric acid levels from 24 weeks to 48 weeks and the ALSFRS-R slope percent change was descriptively summarized using the Wilcoxon test.

[3] = test system: ALS patients; test: Post-hoc statistical analysis 1: percent change in ALSFRS-R slope on transition from placebo to edaravone (16, 17 and 19 trials); settings: for Percentage change in ALSFRS-R slope, Median: Wilcoxon p=0.0433
Source text: After a 12-week observation period, patients whose ALSFRS-R total score decreased by 1 to 4 points during that period were considered eligible for the trial. In the 16 trial, eligible patients were randomly divided into an edaravone treatment group and a placebo administration group, and patients in each group received administration for 24 weeks (cycles 1 to 6). After completing the 24-week double-blind portion of the 16 trial, patients who received edaravone (E) were randomly assigned to the 17 trial, and during a 24-week double-blind extension period (cycles 7 to 12), edaravone treatment (EE group) or placebo administration (EP group) was performed. On the other hand, all patients from the placebo (P) administration group received edaravone treatment (PE group). All patients received open-label edaravone treatment for the next 12 weeks (cycles 13 to 15).
Edaravone was administered at a dose of 60 mg by intravenous infusion over 60 minutes, once daily. The infusion was given for 14 days in the first treatment cycle, and for 10 days out of the 14-day treatment period in all subsequent cycles. A 14-day drug holiday period was provided after each treatment cycle.
Similar to the 16 trial, after a 12-week observation period, patients in the 19 trial were randomly divided into an edaravone treatment group and a placebo administration group, and patients in each group received administration for 24 weeks (cycles 1 to 6). In the 19 trial, after the double-blind treatment period, all patients received open-label edaravone treatment for an additional 24 weeks (cycles 7 to 12). Therefore, the 19 trial included an EE group and a PE group.
as §1, §2, §3, §4

[4] = uric acid level baseline <4.8 mg/dL
[5] = uric acid level baseline ≥4.8 mg/dL
[6] = 25% improvement group, ALS severity grade 3 to 5
[7] = 25% improvement group, ALS severity grade 3 to 5, first change section of Table 3 (n=21)
[8] = 25% improvement group, ALS severity grade 3 to 5, second change section of Table 3 (n=18)
[9] = 25% improvement group, all severities
[10] = non-25% improvement group, ALS severity grade 3 to 5
[11] = non-25% improvement group, ALS severity grade 3 to 5, first change section of Table 3 (n=39)
[12] = non-25% improvement group, ALS severity grade 3 to 5, second change section of Table 3 (n=24)
[13] = non-25% improvement group, all severities
[14] = entire placebo-edaravone treatment population

CC1=NN(c2ccccc2)C(=O)C1 [edaravone, 3-methyl-1-phenyl-2-pyrazolin-5-one]
ALSFRS-R total score at Cycle 12, Mean (SD) ([1]; Overall): 32.8 (7.79) points
ALSFRS-R total score change from baseline to cycle 12, LS Mean (SE) ([1]; Overall): −8.7±0.53 points
ALSFRS-R total score change from baseline to cycle 12, Mean (SD) ([1]; Overall): −8.2 (6.16) points
ALSFRS-R total score change from baseline to cycle 12, LSMD vs placebo PRO-ACT (SE) ([1]; Overall, 95% CI [0.71, 3.72], p=0.0041): 2.21±0.77 points
ALSFRS-R total score change from baseline to cycle 12, LS Mean (SE) ([1]; Overall, listed as Edaravone): −8.7 (0.53) points
ALSFRS-R total score at Cycle 12, Mean (SD) [1, 4]: 31.3 (8.79) points
ALSFRS-R total score change from baseline to cycle 12, LS Mean (SE) [1, 4]: −10.3 (0.74) points
ALSFRS-R total score change from baseline to cycle 12, Mean (SD) [1, 4]: −9.6 (7.52) points
ALSFRS-R total score at Cycle 12, Mean (SD) [1, 5]: 34.0 (6.75) points
ALSFRS-R total score change from baseline to cycle 12, LS Mean (SE) [1, 5]: −7.3 (0.73) points
ALSFRS-R total score change from baseline to cycle 12, Mean (SD) [1, 5]: −7.1 (4.58) points
Uric acid level at final administration of Cycle 7, Mean (SD) [2, 6]: 4.65 (1.49) mg/dL
Uric acid level at final administration of Cycle 12, Mean (SD) [2, 6]: 4.61 (1.48) mg/dL
Uric acid change from start of Cycle 7 to final administration of Cycle 12, LS mean (SE) [2, 7]: −0.37 (0.24) mg/dL
Uric acid change from start of Cycle 7 to final administration of Cycle 12, Mean (SD) [2, 7]: 0.05 (0.47) mg/dL
Uric acid change from start of Cycle 7 to final administration of Cycle 12, LS mean (SE) [2, 8]: −0.42 (0.24) mg/dL
Uric acid change from start of Cycle 7 to final administration of Cycle 12, Mean (SD) [2, 8]: 0.04 (0.60) mg/dL
Uric acid change from start of Cycle 7 to final administration of Cycle 7, LS mean (SE) [2, 9]: −0.16 mg/dL and −0.16 (0.15) mg/dL
Uric acid change from start of Cycle 7 to final administration of Cycle 7, Mean (SD) [2, 9]: 0.05 mg/dL and 0.05 (0.49) mg/dL
Uric acid change from start of Cycle 7 to final administration of Cycle 12, LS mean (SE) [2, 9]: −0.28 mg/dL and −0.28 (0.15) mg/dL
Uric acid change from start of Cycle 7 to final administration of Cycle 12, Mean (SD) [2, 9]: −0.04 mg/dL and −0.04 (0.68) mg/dL
Uric acid level at final administration of Cycle 12, Mean (SD) [2, 9]: 4.51 (1.43) mg/dL
Uric acid level at final administration of Cycle 7, Mean (SD) ([2]; 25% improvement group, all severities, 2 weeks after starting edaravone): 4.63 (1.45) mg/dL
Uric acid change from start of Cycle 7 to final administration of Cycle 12, LSMD (SE) between 25% improvement group and non-25% improvement group ([2]; ALS severity grade 3 to 5, first change section of Table 3, p=0.1701): 0.24 (0.18) mg/dL
Uric acid change from start of Cycle 7 to final administration of Cycle 12, LSMD (SE) between 25% improvement group and non-25% improvement group ([2]; ALS severity grade 3 to 5, second change section of Table 3, p=0.0044): 0.55 (0.19) mg/dL
Uric acid change from start of Cycle 7 to final administration of Cycle 12, LSMD (SE) between 25% improvement group and non-25% improvement group ([2]; all severities, p=0.0252): 0.28 mg/dL and 0.28 (0.12) mg/dL
Uric acid change from start of Cycle 7 to final administration of Cycle 7, LSMD (SE) between 25% improvement group and non-25% improvement group ([2]; all severities, p=0.0726): 0.21 mg/dL and 0.21 (0.12) mg/dL
Uric acid level at final administration of Cycle 7, Mean (SD) [2, 10]: 4.31 (1.10) mg/dL
Uric acid level at final administration of Cycle 12, Mean (SD) [2, 10]: 4.18 (1.00) mg/dL
Uric acid change from start of Cycle 7 to final administration of Cycle 12, LS mean (SE) [2, 11]: −0.61 (0.21) mg/dL
Uric acid change from start of Cycle 7 to final administration of Cycle 12, Mean (SD) [2, 11]: −0.22 (0.60) mg/dL
Uric acid change from start of Cycle 7 to final administration of Cycle 12, LS mean (SE) [2, 12]: −0.98 (0.22) mg/dL
Uric acid change from start of Cycle 7 to final administration of Cycle 12, Mean (SD) [2, 12]: −0.40 (1.02) mg/dL
Uric acid change from start of Cycle 7 to final administration of Cycle 7, LS mean (SE) [2, 13]: −0.37 mg/dL and −0.37 (0.12) mg/dL
Uric acid change from start of Cycle 7 to final administration of Cycle 7, Mean (SD) [2, 13]: −0.14 mg/dL and −0.14 (0.52) mg/dL
Uric acid change from start of Cycle 7 to final administration of Cycle 12, LS mean (SE) [2, 13]: −0.56 mg/dL and −0.56 (0.12) mg/dL
Uric acid change from start of Cycle 7 to final administration of Cycle 12, Mean (SD) [2, 13]: -0.22 mg/dL and −0.22 (0.81) mg/dL
Uric acid level at final administration of Cycle 7, Mean (SD) [2, 13]: 4.46 (1.29) mg/dL
Uric acid level at final administration of Cycle 12, Mean (SD) [2, 13]: 4.48 (1.29) mg/dL
proportion of patients showing improvement in ALSFRS-R slope ([3]; ALS severity grade 3): 64.3%
proportion of patients with at least a 25% improvement in ALSFRS-R slope, cutoff of 24 points ([3]; ALS severity grade 3): 35.7%
proportion of patients showing improvement in ALSFRS-R slope ([3]; ALS severity grade 4): 66.7%
proportion of patients with at least a 25% improvement in ALSFRS-R slope, cutoff of 24 points ([3]; ALS severity grade 4): 33.3%
patients with 25% improvement in ALSFRS-R slope of edaravone compared to placebo ([3]; ALS severity of grade 3 or 4 at the start of cycle 7, about one-third): 21/60
Percentage change in ALSFRS-R slope, Median ([3]; change in uric acid level >0 (n=41)): 14%
Percentage change in ALSFRS-R slope, Mean (SD) ([3]; change in uric acid level >0 from start of cycle 7 to last administration of cycle 12 (n=41)): −64 (199) %
Percentage change in ALSFRS-R slope, Median ([3]; change in uric acid level ≤0 (n=105)): −38%
Percentage change in ALSFRS-R slope, Mean (SD) ([3]; change in uric acid level ≤0 from start of cycle 7 to last administration of cycle 12 (n=105)): −201 (664) %
proportion of patients showing improvement in ALSFRS-R slope upon transition from placebo to edaravone treatment [3, 14]: 43.2% and 43%
proportion of patients with at least a 25% improvement in ALSFRS-R slope, cutoff of 24 points [3, 14]: 24%
